According to ChEMBL document CHEMBL1153604, “Inhibition of Pseudomonas aeruginosa quorum sensing by AI-2 analogs” (Bioorg Med Chem Lett, 2009):
Active and inactive are the calls of the source. No cut-off for these calls is given here.

Experiments:
[1] = target: Autoinducer 2-binding periplasmic protein LuxP (Vibrio harveyi, UniProt P54300); assay: Agonist activity at Vibrio harveyi BB170 LuxP assessed as inhibition of autoinducer-2-induced quorum sensing after 5 hrs by luminescence assay; type: functional
[2] = target: Autoinducer 2-binding periplasmic protein LuxP (Vibrio harveyi) (UniProt P54300); assay: Agonist activity at Vibrio harveyi MM30 LuxP assessed as inhibition of autoinducer-2-induced quorum sensing; type: functional
Pseudomonas aeruginosa [3] = assay: Inhibition of wild type Pseudomonas aeruginosa PAO1 growth at 100 uM; type: functional, organism-based
Pseudomonas aeruginosa [4] = assay: Inhibition of Pseudomonas aeruginosa PAO-JP2-luxCDABE quorm sensing at 200 uM measured every 20 min by luminescence assay in presence of 3-oxo-C12-HSL
[5] = tested on: Pseudomonas aeruginosa PAO1; assay: Inhibition of wild type Pseudomonas aeruginosa PAO1-luxCDABE quorm sensing measured after 20 mins by luminescence assay
[6] = tested on: Pseudomonas aeruginosa PAO1; assay: Inhibition of wild type Pseudomonas aeruginosa PAO1 assessed as reduction in pyocyanin production at 100 uM after 19 hrs […]; design: scale not given: the % may be the effect or the level left
Pseudomonas aeruginosa [7] = assay: Inhibition of Pseudomonas aeruginosa PAO-JP2-luxCDABE quorm sensing measured every 20 mins in presence of 3-oxo-C12-HSL
Pseudomonas aeruginosa [8] = assay: Inhibition of wild type Pseudomonas aeruginosa PAO1-luxCDABE growth at >200 uM by luminescence assay; type: functional, organism-based

Autoinducer 2-binding periplasmic protein LuxP, sequence (P54300 whole entry): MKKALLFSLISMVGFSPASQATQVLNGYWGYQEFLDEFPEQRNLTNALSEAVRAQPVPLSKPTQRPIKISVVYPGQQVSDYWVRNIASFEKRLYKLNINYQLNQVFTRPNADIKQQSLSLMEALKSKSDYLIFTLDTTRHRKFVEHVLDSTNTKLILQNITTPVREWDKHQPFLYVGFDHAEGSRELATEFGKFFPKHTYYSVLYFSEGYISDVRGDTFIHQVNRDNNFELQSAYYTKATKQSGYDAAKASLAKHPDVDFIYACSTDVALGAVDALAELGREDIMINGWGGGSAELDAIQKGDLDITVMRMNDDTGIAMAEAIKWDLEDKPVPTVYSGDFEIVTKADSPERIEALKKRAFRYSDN
Autoinducer 2-binding periplasmic protein LuxP (Vibrio harveyi), sequence (P54300 whole entry): as above

SMILES	EC50 [1]	Activity [2]	inhibition (Pseudomonas aeruginosa [4])	inhibition [5]	Activity [6]	Activity (Pseudomonas aeruginosa [7])	inhibition (Pseudomonas aeruginosa [3])	inhibition (Pseudomonas aeruginosa [8])
CCCCCCCC(=O)C(=O)[C@@H](O)CO	1810 nM	inactive	–	–	–	–	inactive	–
CCCCCCC(=O)C(=O)[C@@H](O)CO	1520 nM	inactive	–	–	–	–	inactive	–
CC(=O)C(=O)[C@@H](O)CO	150 nM	inactive	–	–	–	–	inactive	–

Further lines, with some results ahead:

EC50 [1]	Activity [2]	inhibition (Pseudomonas aeruginosa [4])	inhibition [5]	Activity [6]	Activity (Pseudomonas aeruginosa [7])	SMILES	inhibition (Pseudomonas aeruginosa [3])	inhibition (Pseudomonas aeruginosa [8])
580 nM	Active	–	–	–	–	CCC(=O)C(=O)[C@@H](O)CO	inactive	–
1010 nM	inactive	40%	40%	59%	Dose-dependent effect	CCCCC(=O)C(=O)[C@@H](O)CO	–	inactive
1350 nM	inactive	40%	40%	53%	Dose-dependent effect	CCCCCC(=O)C(=O)[C@@H](O)CO	–	inactive
750 nM	inactive	–	–	–	–	CCCC(=O)C(=O)[C@@H](O)CO	inactive	–
